Laboratory results from article PMC5063977 (The Journal of Biological Chemistry, 2016).

What was measured:
Type in all cases: cell-based
RAMP2-CLR (AM1 receptor) [1] = molecular target: T1, RAMP2-CLR (AM1 receptor) (Homo sapiens, UniProt O60895+Q16602); test: (Ca^2+)i mobilization, HEK-293S cells, RAMP2 + CLR; conditions: HEK293S, percentage of maximal (Ca^2+)i release with 10 μM ionomycin, mean ± S.E., n = 5
T1 construct: FLAG; expressed in transfected cells; host or cells: HEK-293 or HEK-293S cells, transient transfection, 1:1 RAMP:CLR
T1 sequence (Q16602 23-461): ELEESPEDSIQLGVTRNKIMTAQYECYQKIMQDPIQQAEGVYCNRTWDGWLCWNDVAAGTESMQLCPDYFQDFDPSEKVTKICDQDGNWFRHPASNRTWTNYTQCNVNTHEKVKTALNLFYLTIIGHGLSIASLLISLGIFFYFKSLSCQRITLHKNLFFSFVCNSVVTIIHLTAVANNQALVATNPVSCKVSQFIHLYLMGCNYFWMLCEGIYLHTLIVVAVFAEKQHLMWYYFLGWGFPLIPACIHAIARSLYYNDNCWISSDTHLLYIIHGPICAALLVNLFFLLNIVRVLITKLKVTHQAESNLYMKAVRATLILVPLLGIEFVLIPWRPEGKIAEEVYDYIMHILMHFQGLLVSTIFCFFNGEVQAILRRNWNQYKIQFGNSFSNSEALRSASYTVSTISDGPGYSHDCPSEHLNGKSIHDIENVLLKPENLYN
T1 sequence (O60895 43-175): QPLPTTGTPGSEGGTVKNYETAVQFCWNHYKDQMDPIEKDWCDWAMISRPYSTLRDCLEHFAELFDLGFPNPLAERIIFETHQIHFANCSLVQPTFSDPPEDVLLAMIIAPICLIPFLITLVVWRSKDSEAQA
Experimental: (§1) HEK-293 cells were transfected with FuGENE 6 (Roche Applied Science) in accordance with the manufacturer's instructions using a 1:3 (w:v) DNA:FuGENE ratio and a 1:1 ratio of RAMP to CLR. […] The transfected cell lines were grown for 24–48 h prior to assaying.
(§2) Transfected HEK-293 cells were grown to confluence in black, clear bottomed, 96-well plates. […] Cells were then washed followed by the addition of 100 μl of Ca^2+-free Hanks' balanced salt solution. […] Recordings were obtained every 0.5 s for 120 s. Peak magnitude was calculated using five-point smoothing followed by correction against background fluorescence. The peak was used to generate concentration-response curves and normalized relative to 10 μM ionomycin.
(§3) Data analysis for cAMP assays was performed in GraphPad Prism 6.0f (San Diego, CA). […] These values were then used to quantify signaling bias as change in log (τ/Ka) relative to the natural cognate ligand for the respective receptor ([41]). […] Statistical differences were analyzed using one-way ANOVA or Student's t test as appropriate with post hoc Bonferroni's or Dunnett's multiple comparisons, and p < 0.05 was considered significant. […] To quantitate the ligand-dependent response in the yeast system, a strain lacking GPA1 (MMY11), grown in rich medium, was used as a standard ([72]). […]

RAMP2-CLR (AM1 receptor) [2] = molecular target: T1, RAMP2-CLR (AM1 receptor); test: S. cerevisiae growth assay, GPA1/Gαi chimera, RAMP2 + CLR; conditions: percentage of yeast strain MMY11 (lacking GPA1); 20 h; mean ± S.E., n = 6
Experimental: FIGURE 3. […] Reporter gene activity was determined following 20 h of stimulation.
General yeast procedures were performed as described previously ([22], [24]). The human CLR was introduced into yeast cells under the control of the PGK promoter using a plasmid containing ura3 (pDT-PGK). The three human RAMPs were introduced into yeast under the control of the GAPDH promoter using plasmids containing leu2 (p425-GPD) ([25]). S. cerevisiae dual reporter strains expressing chimeras of yeast GPA1(1–467) (GPA1/Gα) with the five C-terminal amino acids of […] human G proteins representing Gαs, Gα16, Gαq, Gαo, Gαi1/2, Gαi3, Gαz, Gα12, Gα13, and Gα14 (MMY84–MMY93) were used in this study ([52]). […] Receptor signaling was measured using the yeast growth assay as described previously ([24]). […] A fluorescein signal was detected as an increase in fluorescence (excitation wavelength = 485 nm, emission wavelength = 535 nm) as a measure of growth. Different concentrations of ligand (0.01 nM–100 μM) were assayed using 96-well plates, and fluorescence was detected using a Tecan Infinite M200 microplate reader (Tecan Ultra Evolution, Reading, UK) or a Mithras LB 940 microplate reader (Berthold Technologies, Harpenden, UK) for 20 h. […]

RAMP2-CLR (AM1 receptor) [3] = molecular target: T1, RAMP2-CLR (AM1 receptor); test: (Ca^2+)i mobilization, HEK-293 cells, RAMP2 + CLR; conditions: HEK293, percentage of maximal (Ca^2+)i release with 10 μM ionomycin, mean ± S.E., n = 5
Experimental: as §1, §2, §3

RAMP3-CLR (AM2 receptor) = molecular target: T2, RAMP3-CLR (AM2 receptor) (Homo sapiens, UniProt O60896+Q16602); test: S. cerevisiae growth assay, GPA1/Gαs chimera, RAMP3 + CLR; conditions: percentage of yeast strain MMY11 (lacking GPA1); 20 h; mean ± S.E., n = 8
T2 construct: FLAG; expressed in transfected cells; host or cells: HEK-293 or HEK-293S cells, transient transfection, 1:1 RAMP:CLR
T2 sequence (Q16602 23-461): as the sequence (Q16602 23-461) above
T2 sequence (O60896 24-148): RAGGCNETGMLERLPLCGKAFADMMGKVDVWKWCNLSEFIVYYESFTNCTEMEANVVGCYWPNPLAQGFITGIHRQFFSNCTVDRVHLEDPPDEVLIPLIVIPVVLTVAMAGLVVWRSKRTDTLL
Experimental: FIGURE 1. […] Reporter gene activity was determined following 20 h of stimulation with each ligand. Data are expressed as a percentage of the maximum response observed in yeast strain MMY11 (lacking GPA1) and are means ± S.E. of n individual data sets. […] Data were determined as statistically different from the cognate ligand for each receptor (*, p < 0.05; **, p < 0.01; ***, p < 0.001) using a one-way ANOVA with Bonferroni's post-test.
General yeast procedures were performed as described previously ([22], [24]). The human CLR was introduced into yeast cells under the control of the PGK promoter using a plasmid containing ura3 (pDT-PGK). […] Receptor signaling was measured using the yeast growth assay as described previously ([24]). […] A fluorescein signal was detected as an increase in fluorescence (excitation wavelength = 485 nm, emission wavelength = 535 nm) as a measure of growth. Different concentrations of ligand (0.01 nM–100 μM) were assayed using 96-well plates, and fluorescence was detected using a Tecan Infinite M200 microplate reader (Tecan Ultra Evolution, Reading, UK) or a Mithras LB 940 microplate reader (Berthold Technologies, Harpenden, UK) for 20 h.
Data analysis for cAMP assays was performed in GraphPad Prism 6.0f (San Diego, CA). […] To quantitate the ligand-dependent response in the yeast system, a strain lacking GPA1 (MMY11), grown in rich medium, was used as a standard ([72]). […]

[4] = molecular target: T3, RAMP1-CLR (CGRP receptor) (Homo sapiens, UniProt O60894+Q16602); test: (Ca^2+)i mobilization, HEK-293 cells, RAMP1 + CLR; conditions: HEK293, percentage of maximal (Ca^2+)i release with 10 μM ionomycin, mean ± S.E., n = 5
T3 construct: FLAG; expressed in transfected cells; host or cells: HEK-293 or HEK-293S cells, transient transfection, 1:1 RAMP:CLR
T3 sequence (Q16602 23-461): as the sequence (Q16602 23-461) above
T3 sequence (O60894 27-148): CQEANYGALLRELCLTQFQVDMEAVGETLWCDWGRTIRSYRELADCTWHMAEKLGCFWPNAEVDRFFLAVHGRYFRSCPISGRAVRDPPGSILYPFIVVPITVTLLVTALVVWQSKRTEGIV
Experimental: as §1, §2, §3

Emax (RAMP2-CLR (AM1 receptor) [1]) [%] | Emax (RAMP2-CLR (AM1 receptor) [2]) [%] | Emax (RAMP2-CLR (AM1 receptor) [3]) [%] | Emax (RAMP3-CLR (AM2 receptor)) [%] | Emax [4] [%] | Structure (SMILES)
20.2 ± 2.8 | 15.7 ± 2.5 | 44.4 ± 7.1 |  |  | CSCC[C@H](NC(=O)[C@H](CC(C)C)NC(=O)[C@H](CCC(N)=O)NC(=O)[C@H](Cc1c[nH]c2ccccc12)NC(=O)[C@H](CC(C)C)NC(=O)[C@H](CCCNC(=N)N)NC(=O)[C@H](Cc1c[nH]cn1)NC(=O)[C@H](CO)NC(=O)[C@H](CC(C)C)NC(=O)[C@H](CC(N)=O)NC(=O)[C@H](CCC(N)=O)NC(=O)[C@@H](NC(=O)[C@H](CCC(N)=O)NC(=O)[C@@H]1CSSC[C@H](NC(=O)CNC(=O)[C@@H](NC(=O)[C@H](CCCNC(=N)N)NC(=O)[C@H](CC(C)C)NC(=O)[C@H](CC(C)C)NC(=O)[C@H](CCC(N)=O)NC(=O)[C@H](C)NC(=O)[C@H](CCC(N)=O)NC(=O)[C@@H](N)[C@@H](C)O)C(C)C)C(=O)N[C@@H](C(C)C)C(=O)N[C@@H](CC(C)C)C(=O)NCC(=O)N[C@@H]([C@@H](C)O)C(=O)N1)C(C)C)C(=O)NCC(=O)N1CCC[C@H]1C(=O)N[C@@H](C)C(=O)NCC(=O)N[C@@H](CCCNC(=N)N)C(=O)N[C@@H](CCC(N)=O)C(=O)N[C@@H](CC(=O)O)C(=O)N[C@@H](CO)C(=O)N[C@@H](C)C(=O)N1CCC[C@H]1C(=O)N[C@H](C(=O)N[C@@H](CC(=O)O)C(=O)N1CCC[C@H]1C(=O)N[C@@H](CO)C(=O)N[C@@H](CO)C(=O)N1CCC[C@H]1C(=O)N[C@@H](Cc1c[nH]cn1)C(=O)N[C@@H](CO)C(=O)N[C@@H](Cc1ccc(O)cc1)C(N)=O)C(C)C [AM2, adrenomedullin 2]
 |  |  | 25.5 ± 3.6 | 37 ± 3.5 | CC[C@H](C)[C@H](NC(=O)[C@H](CCC(N)=O)NC(=O)[C@H](Cc1c[nH]cn1)NC(=O)[C@H](C)NC(=O)[C@H](CC(C)C)NC(=O)[C@H](CCCCN)NC(=O)[C@H](CCC(N)=O)NC(=O)[C@@H](NC(=O)[C@@H](NC(=O)[C@@H]1CSSC[C@H](NC(=O)CNC(=O)[C@H](Cc2ccccc2)NC(=O)[C@H](CO)NC(=O)[C@H](CCCNC(=N)N)NC(=O)[C@H](CC(C)C)NC(=O)CNC(=O)[C@H](CCC(N)=O)NC(=O)[C@H](Cc2ccccc2)NC(=O)[C@H](CC(N)=O)NC(=O)[C@H](CC(N)=O)NC(=O)[C@H](CCSC)NC(=O)[C@H](CO)NC(=O)[C@H](CCC(N)=O)NC(=O)[C@H](CCCNC(=N)N)NC(=O)[C@@H](N)Cc2ccc(O)cc2)C(=O)N[C@@H](CCCNC(=N)N)C(=O)N[C@@H](Cc2ccccc2)C(=O)NCC(=O)N[C@@H]([C@@H](C)O)C(=O)N1)[C@@H](C)O)C(C)C)C(=O)N[C@@H](Cc1ccc(O)cc1)C(=O)N[C@@H](CCC(N)=O)C(=O)N[C@@H](Cc1ccccc1)C(=O)N[C@H](C(=O)N[C@@H](CC(=O)O)C(=O)N[C@@H](CCCCN)C(=O)N[C@@H](CC(=O)O)C(=O)N[C@@H](CCCCN)C(=O)N[C@@H](CC(=O)O)C(=O)N[C@@H](CC(N)=O)C(=O)N[C@H](C(=O)N[C@@H](C)C(=O)N1CCC[C@H]1C(=O)N[C@@H](CCCNC(=N)N)C(=O)N[C@@H](CO)C(=O)N[C@@H](CCCCN)C(=O)N[C@H](C(=O)N[C@@H](CO)C(=O)N1CCC[C@H]1C(=O)N[C@@H](CCC(N)=O)C(=O)NCC(=O)N[C@@H](Cc1ccc(O)cc1)C(N)=O)[C@@H](C)CC)C(C)C)[C@@H](C)O [AM, adrenomedullin]
